Data taken from patent US20130245081A1, “Compositions and Methods for Treating Amyotrophic Lateral Sclerosis” (priority 2009, published 2013).

How the values were obtained:
human subjects = settings: in vivo; cited from earlier work
monkeys = settings: single oral dose; cited from earlier work
rodents [1] = test: Single dose toxicity after oral administration, rodents; settings: in vivo
dogs = settings: single oral dose; cited from earlier work
rodents [2] = settings: single oral dose; cited from earlier work
patients with ALS = settings: Part 1

For `CCCN[C@H]1CCc2nc(N)sc2C1` [pramipexole, (6S)-2-amino-4,5,6,7-tetrahydro-6-(propylamino)benzothiazole], the “dose shown to cause somnolence in humans” value (human subjects) is listed as 1.5 mg, the “initial single dose not tolerated” value (human subjects) is listed as “greater than 0.20 mg” and the “maximally tolerated dose for humans (Mirapex product insert)” value (human subjects) is listed as 4.5 mg/day. The “dose at which major excitation was displayed” value (monkeys) was 3.5 mg/kg, the “human dose equivalent to the lethal rodent dose” value (rodents [1]) was 7 to 12 mg/kg and the “human dose equivalent to the lethal rodent dose for a 70 kg individual” value (rodents [1]) was 500 to 850 mg. The “dose at which vomiting occurred” value (dogs) was no less than 0.0007 mg/kg and the “doses at which death occurred” value (rodents [2]) was 70 to 105 mg/kg.
In the case of `Nc1nc2ccc(OC(F)(F)F)cc2s1` [riluzole, reference compound], the “effect of riluzole on change from baseline in ALSFRS-R scores” value (patients with ALS; across all treatment groups) is reported as “no effect” and the “mean change from baseline to study endpoint in ALSFRS-R score” value (patients with ALS; placebo with riluzole) is reported as −3.6.
